Experimental data from the NIST ThermoML archive (doi:10.1016/j.jct.2016.08.015).
Numbers after ± are expanded uncertainties.

Assay: xn = mol fraction of the nth substance listed
Conditions: 101.3 kPa, Liquid, Pycnometric method

Structure (SMILES) | mass density (303.15 K, x2 = 0.75) [kg/m3] | mass density (313.15 K, x2 = 0.75) [kg/m3] | mass density (323.15 K, x2 = 0.75) [kg/m3] | mass density (333.15 K, x2 = 0.75) [kg/m3] | mass density (303.15 K, x1 = 0.75) [kg/m3] | mass density (313.15 K, x1 = 0.75) [kg/m3] | mass density (323.15 K, x1 = 0.75) [kg/m3] | mass density (333.15 K, x1 = 0.75) [kg/m3]
CCCC[N+](CCCC)(CCCC)CCCC.[Cl-] [tetrabutylammonium chloride] + CC(=O)CCC(=O)O | 1027.3 ± 1.2 | 1020.3 ± 1.3 | 1013.1 ± 1.3 | 1006 ± 1.3 |  |  |  | 
CC(=O)OCC[N+](C)(C)C.[Cl-] [acetylcholine chloride] + CC(=O)CCC(=O)O | 1136.9 ± 1.1 | 1129.4 ± 1.1 | 1121.8 ± 1.1 | 1114.4 ± 1.1 |  |  |  | 
CC(=O)CCC(=O)O [4-oxopentanoic acid] + CC[N+](CC)(CC)CC.[Br-] |  |  |  |  | 1169.9 ± 1.1 | 1162.2 ± 1.1 | 1154.6 ± 1.1 | 1147.4 ± 1.2
CC[N+](CC)(CC)CC.[Cl-] [tetraethylammonium chloride] + CC(=O)CCC(=O)O | 1090.3 ± 1.3 | 1083.3 ± 1.3 | 1076.1 ± 1.3 | 1069.2 ± 1.3 |  |  |  | 
CC(=O)CCC(=O)O [4-oxopentanoic acid] + CCCC[N+](CCCC)(CCCC)CCCC.[Br-] |  |  |  |  | 1093.5 ± 1.1 | 1086.2 ± 1.1 | 1078.8 ± 1.1 | 1072.1 ± 1.1
